Patent publication US20240201189A1, “FLUORESCENT PROBE FOR USE IN DETECTION OF PANCREATIC CANCER” (The University of Tokyo, priority 2021, published 2024)
Several values for one entry are separate records, joined by “and”; a condition that tells them apart may be missing. Equal values may be shown once. Each block holds one compound with its values, some of them ahead of it.

Assays:
Human recombinant DPP-IV = target: T1, Human recombinant DPP-IV (Homo sapiens, UniProt P27487); assay: Target enzyme search: change in FI of probe after adding DPP-IV; format: biochemical; conditions: probe 1.0 μM; 2,000 seconds; ex/em 495 nm/525 nm; FIG. 5A
T1 construct: purchased Sigma-Aldrich D 4943
Method: (§1) It was considered that dipeptidyl peptidase 4 (DPP-IV) or a similar enzyme was a target enzyme overexpressed in pancreatic cancer tissue. First, the candidate fluorescent probe was examined whether DPP-IV or the similar enzyme was activated. Human recombinant DPP-IV (50 μL; D 4943, Sigma-Aldrich), DPP-VIII (1.0 μg; ab162872, abcam), and DPP-IX (1.0 μg; ab79621, abcam) were injected into 3.0 mL of a probe solution (1.0 μM) using F-7000 (Hitachi (Tokyo)), and a change in FI during 2,000 seconds was measured. Excitation and emission wavelengths were set to 495 and 525 nm, respectively.

[1] = tested on: pancreatic cancer tissue in surgically resected specimen; assay: Fluorescence imaging of cut surface of surgically resected pancreatic cancer specimens (TBR); format: cell-based, human
Method: Immediately after the pancreatic cancer specimen was extracted, the pancreatic cancer specimen was cut so as to include a maximum diameter of pancreatic cancer tissue. Next, the fluorescent probe described above (4 mL, 50 μM) was directly applied to the cut surface and fluorescence imaging was performed using Maestro in Vivo imaging system as described above. The accuracy of the fluorescence imaging was evaluated by a surgeon (RT) and a pathologist (MT) with reference to histopathological findings on the same plane. In addition, a tumor/background ratio (TBR) was also calculated by measuring the increase in average FI from 1 minute to 30 minutes after probe administration in carcinomatous and non-carcinomatous sites based on macroscopic/microscopic findings of the cut surface and corresponding fluorescence images.

Human recombinant DPP-IX = target: T2, Human recombinant DPP-IX (Homo sapiens, UniProt Q86TI2); assay: Target enzyme search: change in FI of probe after adding DPP-IX; format: biochemical; conditions: probe 1.0 μM; 2,000 seconds; ex/em 495 nm/525 nm; FIG. 5C
T2 construct: purchased abcam ab79621
Method: as §1

[2] = tested on: lysates prepared from tissue fragments of carcinomatous and non-carcinomatous sites (pancreatic cancer resected specimens); assay: Primary screening: increase in FI of probes mixed with lysates of carcinomatous and non-carcinomatous tissue; format: biochemical, human; conditions: lysates from five patients; probe 1.0 μM; 60 minutes, 37° C.; FIG. 1A
Method: First, according to the procedure described in Non Patent Literatures 6 to 8, each of lysates prepared from tissue fragments of carcinomatous and non-carcinomatous sites was mixed with a fluorescent probe, an increased value of fluorescence intensity was measured, and a fluorescent probe as a candidate was selected. Briefly, 5 μL of a lysate (protein concentration: 0.20 mg/dL) was added dropwise to a well of a black 384 plate in which 15 μL of a library of dipeptide-HMRG compounds (Non Patent Literature 8) was arranged. Final concentrations of the candidate probe and the lysate protein were 1.0 μM and 0.050 mg/dL, respectively.
The fluorescence intensity (FI) of each sample was measured at 0 minutes and 60 minutes after mixing with Envision Multilabel Plate Reader (PerkinElmer, Massachusetts, USA) while performing incubation at 37° C. Excitation and emission wavelengths were set to 485 nm and 535 nm, respectively. An increase in FI was defined as follows.
(Increase in FI)=(FI after 60 minutes)−(FI after 0 minutes)
Probes with the top 10% difference or ratio in the increase in FI in the carcinomatous and non-carcinomatous lysates were selected as candidate probes and evaluated as follows.

T1 sequence (P27487 whole entry): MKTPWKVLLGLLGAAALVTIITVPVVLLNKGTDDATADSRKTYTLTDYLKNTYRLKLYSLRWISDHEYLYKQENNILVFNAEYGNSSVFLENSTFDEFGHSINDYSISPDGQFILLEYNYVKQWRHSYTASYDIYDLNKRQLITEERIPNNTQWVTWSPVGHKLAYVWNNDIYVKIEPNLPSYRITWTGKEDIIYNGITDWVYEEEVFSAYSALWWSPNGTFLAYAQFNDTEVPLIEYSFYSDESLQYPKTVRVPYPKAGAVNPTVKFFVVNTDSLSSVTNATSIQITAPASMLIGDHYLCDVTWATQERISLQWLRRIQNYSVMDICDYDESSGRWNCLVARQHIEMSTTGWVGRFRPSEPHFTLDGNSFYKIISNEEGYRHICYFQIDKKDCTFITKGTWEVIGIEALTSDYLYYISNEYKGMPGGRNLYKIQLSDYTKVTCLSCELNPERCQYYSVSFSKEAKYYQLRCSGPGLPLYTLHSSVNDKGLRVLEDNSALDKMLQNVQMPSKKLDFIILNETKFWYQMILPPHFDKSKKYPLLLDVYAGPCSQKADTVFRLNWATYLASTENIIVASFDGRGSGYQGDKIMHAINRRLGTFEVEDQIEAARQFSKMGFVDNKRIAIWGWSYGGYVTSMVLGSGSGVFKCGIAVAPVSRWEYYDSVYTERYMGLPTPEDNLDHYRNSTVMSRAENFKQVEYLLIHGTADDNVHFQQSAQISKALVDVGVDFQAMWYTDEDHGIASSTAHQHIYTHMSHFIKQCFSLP
T2 sequence (Q86TI2 whole entry): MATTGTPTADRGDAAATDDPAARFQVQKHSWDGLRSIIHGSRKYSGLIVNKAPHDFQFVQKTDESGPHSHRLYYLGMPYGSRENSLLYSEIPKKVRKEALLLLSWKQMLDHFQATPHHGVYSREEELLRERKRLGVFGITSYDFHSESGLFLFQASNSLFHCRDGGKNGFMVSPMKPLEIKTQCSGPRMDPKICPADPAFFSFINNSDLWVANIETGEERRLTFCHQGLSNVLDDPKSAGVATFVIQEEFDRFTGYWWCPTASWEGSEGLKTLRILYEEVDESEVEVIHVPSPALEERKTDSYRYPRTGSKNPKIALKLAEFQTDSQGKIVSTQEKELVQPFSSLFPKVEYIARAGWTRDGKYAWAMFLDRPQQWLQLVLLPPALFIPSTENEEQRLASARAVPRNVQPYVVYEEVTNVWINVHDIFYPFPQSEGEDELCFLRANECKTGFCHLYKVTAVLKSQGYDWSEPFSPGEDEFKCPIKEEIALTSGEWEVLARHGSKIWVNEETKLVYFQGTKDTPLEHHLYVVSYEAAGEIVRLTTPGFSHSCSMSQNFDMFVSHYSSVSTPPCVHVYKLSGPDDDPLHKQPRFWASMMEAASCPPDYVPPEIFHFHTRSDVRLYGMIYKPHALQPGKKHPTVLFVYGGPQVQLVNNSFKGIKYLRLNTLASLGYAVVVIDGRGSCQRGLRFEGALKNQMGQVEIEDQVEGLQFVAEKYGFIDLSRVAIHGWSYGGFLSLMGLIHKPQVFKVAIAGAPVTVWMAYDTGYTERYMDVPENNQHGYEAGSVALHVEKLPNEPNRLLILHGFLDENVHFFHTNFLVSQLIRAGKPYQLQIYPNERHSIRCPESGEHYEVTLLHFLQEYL

- conversion of probe into fluorescent HMRG in reaction with DPP-IV (Human recombinant DPP-IV): converted into a highly fluorescent HMRG
- conversion of probe into fluorescent HMRG in reaction with DPP-IX (Human recombinant DPP-IX): converted into a highly fluorescent HMRG
SMILES: NCC(=O)N1CCC[C@H]1C(=O)Nc1ccc2c(c1)Oc1cc(N)ccc1C21OCc2ccccc21 (stereo partly drawn) [GP-HMRG]
- average TBR of the fluorescence images ([1]; 30 minutes after spraying, eight patients): 1.96 (range, 1.31 to 2.04)
- TBR in the connective tissue surrounding the splenic artery ([1]; Patient No. 8, after preoperative chemotherapy, cancer invasion): 2.04
- TBR of the main tumor ([1]; Patient No. 8, after preoperative chemotherapy, fibrosis and mucinous changes, few viable cancer cells): 1.13
- time from which increase in fluorescence signal in carcinomatous tissue was confirmed ([1]; after topical administration): 1 min
- TBR in patients with uniform fluorescence signal of carcinomatous tissue ([1]; four of eight patients (Patient Nos. 1, 2, 4 and 5)): > 1.9
- A TBR ratio of FI ([1]; one value per patient (Patients 1-8), cut surface, increase in average FI from 1 to 30 minutes, probe 4 mL, 50 μM): 1.98 (2×) and 1.93 and 1.47 and 1.26 and 1.13 and 3.44 and 2.06
- increase in FI in carcinomatous tissue as opposed to non-carcinomatous tissue (lysates) [2]: significant increase in FI in carcinomatous tissue

SMILES: Nc1ccc2c(c1)Oc1cc(NC(=O)[C@@H]3CCCN3C(=O)[C@@H]3CCCN3)ccc1C21OCc2ccccc21 (stereo partly drawn) [PP-HMRG]
- increase in FI in carcinomatous tissue as opposed to non-carcinomatous tissue (lysates) [2]: significant increase in FI in carcinomatous tissue

SMILES: Nc1ccc2c(c1)Oc1cc(NC(=O)[C@@H]3CCCN3C(=O)[C@@H](N)Cc3ccc(O)cc3)ccc1C21OCc2ccccc21 (stereo partly drawn) [YP-HMRG]
- increase in FI in carcinomatous tissue as opposed to non-carcinomatous tissue (lysates) [2]: significant increase in FI in carcinomatous tissue

SMILES: CC(C)C[C@H](N)C(=O)N1CCC[C@H]1C(=O)Nc1ccc2c(c1)Oc1cc(N)ccc1C21OCc2ccccc21 (stereo partly drawn) [LP-HMRG]
- increase in FI in carcinomatous tissue as opposed to non-carcinomatous tissue (lysates) [2]: significant increase in FI in carcinomatous tissue
